From the NIST ThermoML archive (doi:10.1016/j.jct.2015.03.019)
Several values for one entry are separate records, joined by “and”; a condition that tells them apart may be missing. Equal values may be shown once. Numbers after ± are expanded uncertainties.

Assay: molar heat capacity at constant pressure
Settings: 101.33 kPa, Crystal, Small (less than 1 g) adiabatic calorimetry

CC(C)(C)c1ccc(Oc2ccccc2)cc1 [4-tert-butylphenyl phenyl ether]
Settings | molar heat capacity at constant pressure
5 K | 0.671 ± 0.044 J/K/mol
7.93 K | 2.627 ± 0.12 J/K/mol
8.1 K | 2.719 ± 0.12 J/K/mol
8.28 K | 3.035 ± 0.14 J/K/mol
8.43 K | 3.06 ± 0.14 J/K/mol
8.59 K | 3.268 ± 0.15 J/K/mol
8.75 K | 3.459 ± 0.16 J/K/mol
8.9 K | 3.675 ± 0.17 J/K/mol
9.05 K | 3.725 ± 0.17 J/K/mol
9.2 K | 3.958 ± 0.17 J/K/mol
9.49 K | 4.365 ± 0.19 J/K/mol
9.63 K | 4.573 ± 0.2 J/K/mol
9.78 K | 4.881 ± 0.22 J/K/mol
9.92 K | 5.097 ± 0.22 J/K/mol
10 K | 4.906 ± 0.17 J/K/mol
10.28 K | 5.488 ± 0.24 J/K/mol
10.56 K | 5.961 ± 0.26 J/K/mol
10.85 K | 6.419 ± 0.27 J/K/mol
11.15 K | 6.884 ± 0.3 J/K/mol
12.02 K | 8.298 ± 0.36 J/K/mol
12.32 K | 8.896 ± 0.42 J/K/mol
12.61 K | 9.395 ± 0.42 J/K/mol
12.91 K | 9.977 ± 0.42 J/K/mol
13.21 K | 10.48 ± 0.42 J/K/mol
13.51 K | 11.06 ± 0.5 J/K/mol
13.81 K | 11.64 ± 0.5 J/K/mol
14.11 K | 12.22 ± 0.5 J/K/mol
14.41 K | 12.72 ± 0.5 J/K/mol
14.71 K | 13.3 ± 0.58 J/K/mol
15 K | 13.89 ± 0.33 J/K/mol
15.02 K | 13.97 ± 0.58 J/K/mol
15.32 K | 14.55 ± 0.58 J/K/mol
15.63 K | 15.05 ± 0.67 J/K/mol
15.94 K | 15.71 ± 0.67 J/K/mol
16.25 K | 16.3 ± 0.67 J/K/mol
16.56 K | 16.96 ± 0.75 J/K/mol
16.87 K | 17.63 ± 0.75 J/K/mol
17.18 K | 18.13 ± 0.75 J/K/mol
17.49 K | 18.96 ± 0.75 J/K/mol
17.8 K | 19.54 ± 0.83 J/K/mol
18.12 K | 20.12 ± 0.83 J/K/mol
18.43 K | 20.79 ± 0.83 J/K/mol
18.74 K | 21.29 ± 0.91 J/K/mol
19.06 K | 21.95 ± 0.91 J/K/mol
19.37 K | 22.7 ± 0.91 J/K/mol
19.68 K | 23.36 ± 1 J/K/mol
20 K | 23.95 ± 1 J/K/mol and 23.95 ± 0.58 J/K/mol
20.57 K | 25.05 ± 0.42 J/K/mol
21.33 K | 26.59 ± 0.44 J/K/mol
22.1 K | 28.07 ± 0.47 J/K/mol
22.86 K | 29.59 ± 0.48 J/K/mol
23.63 K | 31.1 ± 0.51 J/K/mol
24.4 K | 32.68 ± 0.53 J/K/mol
25 K | 33.84 ± 0.75 J/K/mol
25.18 K | 34.25 ± 0.55 J/K/mol
25.95 K | 35.83 ± 0.57 J/K/mol
26.73 K | 37.02 ± 0.58 J/K/mol
27.51 K | 38.42 ± 0.6 J/K/mol
28.29 K | 39.88 ± 0.62 J/K/mol
29.07 K | 41.31 ± 0.64 J/K/mol
29.85 K | 42.77 ± 0.66 J/K/mol
30 K | 43.07 ± 0.83 J/K/mol
30.63 K | 44.28 ± 0.67 J/K/mol
31.42 K | 45.65 ± 0.68 J/K/mol
32.21 K | 47 ± 0.71 J/K/mol
33 K | 48.3 ± 0.72 J/K/mol
33.79 K | 49.62 ± 0.74 J/K/mol
34.58 K | 50.93 ± 0.76 J/K/mol
35 K | 51.38 ± 0.58 J/K/mol
35.37 K | 52 ± 0.77 J/K/mol
36.16 K | 53.14 ± 0.79 J/K/mol
36.95 K | 54.29 ± 0.81 J/K/mol
37.74 K | 55.42 ± 0.82 J/K/mol
38.53 K | 56.54 ± 0.84 J/K/mol
39.32 K | 57.57 ± 0.86 J/K/mol
40 K | 58.7 ± 0.67 J/K/mol
40.11 K | 58.69 ± 0.55 J/K/mol
40.91 K | 59.85 ± 0.56 J/K/mol
41.7 K | 61.07 ± 0.57 J/K/mol
42.49 K | 62.01 ± 0.57 J/K/mol
43.29 K | 63.2 ± 0.59 J/K/mol
44.08 K | 64.35 ± 0.6 J/K/mol
44.88 K | 65.44 ± 0.61 J/K/mol
45 K | 65.52 ± 0.42 J/K/mol
45.68 K | 66.42 ± 0.62 J/K/mol
